According to the supplement of paper PMC10307832:

Key:
Assay in all cases: relative viability (nuclei count vs DMSO), 5 days (fraction); higher = more cells survive
[1] = compound: CC[C@@H]1C(=O)N(C)c2cnc(Nc3ccc(C(=O)NC4CCN(C)CC4)cc3OC)nc2N1C1CCCC1 [BI-2536] + Nc1ncn([C@H]2C[C@H](O)[C@@H](CO)O2)c(=O)n1 [Decitabine] (partner 2 µM)
Procedure, shortened: (§1)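 Each reported value is a median over duplicate plates. It expresses relative viability: treated-well nuclei count divided by vehicle-well nuclei count. Lung cancer cell lines in 1536-well plates were dosed by pin tool a day after seeding, alone with one drug or with a fixed anchor-drug dose plus five library-drug doses (not always all listed) in √10 steps, and nuclei were counted after 5 days.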

[2] = compound: CC1CC(=O)N(C2=CN=C(N=C2N1C3CCCC3)NC4=C(C=C(C=C4)C(=O)NC5CCN(CC5)C)OC)C [NPK76-II-72-1] + Nc1nc2[nH]cc(CCc3ccc(C(=O)N[C@@H](CCC(=O)O)C(=O)O)cc3)c2c(=O)[nH]1 [Pemetrexed] (partner 0.2 µM)
Procedure, shortened: as §1

[3] = compound: CC[C@@H]1C(=O)N(C)c2cnc(Nc3ccc(C(=O)NC4CCN(C)CC4)cc3OC)nc2N1C1CCCC1 [BI-2536] + O=C(c1cc(Cc2n[nH]c(=O)c3ccccc23)ccc1F)N1CCN(C(=O)C2CC2)CC1 [Olaparib] (partner 8 µM)
Procedure, shortened: as §1

[4] = compound: CC[C@@H]1C(=O)N(C)c2cnc(Nc3ccc(C(=O)NC4CCN(C)CC4)cc3OC)nc2N1C1CCCC1 [BI-2536] + COc1cccc2cc(-c3nc([C@H]4CC[C@H](C(=O)O)CC4)n4ncnc(N)c34)[nH]c12 [OSI-027] (partner 0.5 µM)
Procedure, shortened: as §1

Cell Line | relative viability ([1]; first compound 0.01 µM) | relative viability ([1]; first compound 0.03162 µM) | relative viability ([1]; first compound 0.1 µM) | relative viability ([1]; first compound 0.3162 µM) | relative viability ([1]; first compound 1 µM) | relative viability ([2]; first compound 0.01 µM) | relative viability ([2]; first compound 0.03162 µM) | relative viability ([2]; first compound 0.1 µM) | relative viability ([2]; first compound 0.3162 µM) | relative viability ([2]; first compound 1 µM) | relative viability ([3]; first compound 0.01 µM) | relative viability ([3]; first compound 0.03162 µM) | relative viability ([3]; first compound 0.1 µM) | relative viability ([3]; first compound 0.3162 µM) | relative viability ([3]; first compound 1 µM) | relative viability ([4]; first compound 0.01 µM) | relative viability ([4]; first compound 0.03162 µM) | relative viability ([4]; first compound 0.1 µM) | relative viability ([4]; first compound 0.3162 µM) | relative viability ([4]; first compound 1 µM)
NCI-H1915 | 0.261 | 0.238 | 0.227 | 0.108 | 0.119 | 0.459 | 0.527 | 0.452 | 0.475 | 0.533 | 0.218 | 0.205 | 0.163 | 0.0887 | 0.0963 | 0.597 | 0.637 | 0.185 | 0.104 | 0.121
NCI-H596 | 1.07 | 1.25 | 0.996 | 0.611 | 0.417 | 0.522 | 0.503 | 0.485 | 0.482 | 0.462 | 0.731 | 0.731 | 0.59 | 0.423 | 0.295 | 0.688 | 0.825 | 0.51 | 0.191 | 0.304
NCI-H322M | 0.69 | 0.64 | 0.649 | 0.462 | 0.451 | 0.606 | 0.566 | 0.601 | 0.539 | 0.595 | 0.74 | 0.692 | 0.637 | 0.442 | 0.393 | 0.52 | 0.52 | 0.37 | 0.411 | 0.305
NCI-H522 | 0.715 | 0.626 | 0.698 | 0.312 | 0.358 | 0.839 | 0.914 | 1.01 |  | 0.797 | 0.655 | 0.594 | 0.689 | 0.364 | 0.316 | 0.752 | 0.72 | 0.445 | 0.399 | 0.372
NCI-H647 | 0.391 | 0.301 | 0.103 | 0.0938 | 0.135 | 0.189 | 0.174 | 0.171 | 0.172 | 0.198 | 0.481 | 0.281 | 0.107 | 0.0584 | 0.0662 | 0.814 | 0.807 | 0.529 | 0.0918 | 0.0985
SK-MES-1 | 0.335 | 0.351 | 0.186 | 0.164 | 0.184 | 0.929 | 0.968 | 0.989 | 1.01 | 1.12 | 0.72 | 0.656 | 0.199 | 0.165 | 0.177 | 0.601 | 0.458 | 0.178 | 0.173 | 0.182
NCI-H2170 | 0.466 | 0.471 | 0.431 | 0.167 | 0.181 | 0.407 | 0.26 | 0.269 | 0.245 | 0.283 | 0.597 | 0.525 | 0.39 | 0.164 | 0.145 | 0.762 | 0.757 | 0.285 | 0.172 | 0.209
NCI-H2085 | 0.629 | 0.484 | 0.484 | 0.301 | 0.303 | 0.855 | 0.946 | 0.972 | 0.915 | 0.974 | 0.786 | 0.697 | 0.544 | 0.341 | 0.381 | 0.833 | 0.602 | 0.282 | 0.153 | 0.272
SW 1573 | 0.473 | 0.257 | 0.095 | 0.0944 | 0.0866 | 0.751 | 0.829 | 0.821 | 0.849 | 0.824 | 0.446 | 0.266 | 0.12 | 0.1 | 0.0718 | 0.681 | 0.44 | 0.133 | 0.0966 | 0.0839
NCI-H441 | 0.244 | 0.247 | 0.153 | 0.149 | 0.149 | 0.293 | 0.266 | 0.246 | 0.274 | 0.25 | 0.522 | 0.354 | 0.171 | 0.148 | 0.148 | 0.449 | 0.42 | 0.222 | 0.226 | 0.266
LOU-NH91 | 0.816 | 0.685 | 0.66 | 0.343 | 0.383 | 0.348 | 0.402 | 0.381 | 0.44 | 0.35 | 0.934 | 0.728 | 0.612 | 0.336 | 0.28 | 0.716 | 0.697 | 0.695 | 0.416 | 0.244
NCI-H3122 | 0.386 | 0.508 | 0.392 | 0.151 | 0.159 | 0.209 | 0.191 | 0.181 | 0.195 | 0.209 | 0.621 | 0.595 | 0.276 | 0.131 | 0.146 | 0.944 | 0.16 | 0.13 | 0.17 | 0.213
NCI-H460 | 0.596 | 0.486 | 0.114 | 0.0205 | 0.0215 | 0.061 | 0.0655 | 0.0657 | 0.0656 | 0.0639 | 0.488 | 0.421 | 0.268 | 0.0394 | 0.0262 | 0.676 | 0.327 | 0.247 | 0.0156 | 0.0121
NCI-H650 | 0.303 | 0.328 | 0.246 | 0.146 | 0.126 | 1.01 | 0.972 | 0.879 | 0.922 | 0.994 | 0.407 | 0.28 | 0.237 | 0.146 | 0.105 | 0.551 | 0.471 | 0.351 | 0.19 | 0.144
NCI-H661 | 0.534 | 0.424 | 0.278 | 0.253 | 0.265 | 0.953 | 0.907 | 0.893 | 0.902 | 0.954 | 0.763 | 0.468 | 0.354 | 0.335 | 0.34 | 0.697 | 0.379 | 0.35 | 0.208 | 0.209
NCI-H1793 | 0.419 | 0.509 | 0.236 | 0.198 | 0.145 |  | 1.05 | 0.92 | 0.806 | 0.981 | 0.674 | 0.767 | 0.203 | 0.152 | 0.157 | 0.271 | 0.256 | 0.143 | 0.157 | 0.136
